Among the data in ChEMBL document CHEMBL3046204, “Protective effect of Centaurea pallescens Del. against CCl4-induced injury on a human hepatoma cell line (Huh7)” (2013) are Activity values, retold here.

Experiment [1] relates to Huh-7. Put plainly: Hepatoprotective activity against CCL4-induced toxicity in human HuH7 cells assessed as increase in GSH level at 10 to 1000 ug/ml incubated for 1 hr prior to CCL4-challenge measured after 2 hrs relative to control. The format is functional, cell-based.
For experiment [2], the system named is Huh-7. Put plainly: Hepatoprotective activity against CCL4-induced toxicity in human HuH7 cells assessed as increase in superoxide dismutase activity at 10 to 1000 ug/ml incubated for 1 hr prior to CCL4-challenge measured after 2 hrs relative to control. The format is functional, cell-based.
The test system of experiment [3] is Huh-7. The experiment in a line: Hepatoprotective activity against CCL4-induced toxicity in human HuH7 cells assessed as superoxide dismutase activity at 100 ug/ml incubated for 1 hr prior to CCL4-challenge measured after 2 hrs (reference value: 168.4 +/- 24.9 U/ml). The format is functional.
For experiment [4], the system named is Huh-7. Put plainly: Hepatoprotective activity against CCL4-induced toxicity in human HuH7 cells assessed as decrease in alanine transaminase level at 10 to 1000 ug/ml incubated for 1 hr prior to CCL4-challenge measured after 2 hrs relative to control. The experiment is classed as functional, cell-based.
The subject of experiment [5] is Huh-7. The experiment in a line: Hepatoprotective activity against CCL4-induced toxicity in human HuH7 cells assessed as decrease in aspartate aminotransferase level at 10 to 1000 ug/ml incubated for 1 hr prior to CCL4-challenge measured after 2 hrs relative to control. The format is functional, cell-based.
The test system of experiment [6] is Huh-7. Put plainly: Hepatoprotective activity against CCL4-induced toxicity in human HuH7 cells assessed as alanine transaminase level at 100 ug/ml incubated for 1 hr prior to CCL4-challenge measured after 2 hrs (reference value: 21.5 +/- 3.7 U/ml). The format is functional.
The subject of experiment [7] is Huh-7. The experiment in a line: Hepatoprotective activity against CCL4-induced toxicity in human HuH7 cells assessed as aspartate aminotransferase level at 10 ug/ml incubated for 1 hr prior to CCL4-challenge measured after 2 hrs (reference value: 38.9 +/- 7.9 U/ml). The format is functional.

The source made the active and inactive calls. No cut-off for these calls is given here.

Consider `COc1ccc(-c2oc3cc(O[C@@H]4O[C@@H](C)[C@H](OC(=O)/C=C/c5ccc(O)cc5)[C@@H](O)[C@H]4O)cc(O)c3c(=O)c2O[C@@H]2O[C@H](CO)[C@@H](O)[C@H](O[C@@H]3O[C@@H](C)[C@H](O)[C@@H](O)[C@H]3O)[C@H]2OC(=O)/C=C/c2ccc(O)cc2)cc1`, for which the outcome with Huh-7 [1], with Huh-7 [2], in the experiment with Huh-7 [4] and with Huh-7 [5] was Active. Besides, the Activity was found to be 264.6 U/ml with Huh-7 [3] and 18.6 U/ml with Huh-7 [6].
Regarding `O=c1c(OC2O[C@H](CO)[C@@H](O)[C@H](O)[C@H]2O)c(-c2cc(O)c(O)c(O)c2)oc2cc(O)cc(O)c12` (stereo not given in full) [MYRICETIN 3-O-GLUCOSIDE], the outcome in the experiment on Huh-7 [1], in the experiment with Huh-7 [2], in the experiment on Huh-7 [4] and with Huh-7 [5] was Active. In addition, the Activity in the experiment with Huh-7 [7] turned out to be 5.8 U/ml.
Turning to `O=c1c(O[C@@H]2O[C@H](CO)[C@@H](O)[C@H](O)[C@H]2O)c(-c2ccc(O)c(O)c2)oc2cc(O)cc(O)c12`, the outcome with Huh-7 [1], in the experiment on Huh-7 [2], in the experiment on Huh-7 [4] and in the experiment on Huh-7 [5] was Active.
